In patent publication US20250332300A1 (priority 2024, published 2025):
Where a name gives a salt, the structure may show the parent alone. Read-outs that look alike come from different tables or passages of the source. Starred links: 1 amine or outer side, 2 acyl side, 3 side chain; linkers in the order of their positions; H or OH if unused. Positions of bridges follow the written chain, without caps; N, C: chain ends. Non-standard residues stand in square brackets, D forms with d. Residues, ends and D or L forms follow the SMILES beside them. Groups on a side chain read outwards from the residue. *: point of attachment. DOTA = O=C(O)CN1CCN(CC(=O)O)CCN(CC(=O)*)CCN(CC(=O)O)CC1; Trp(5-OH) = N[C@@H](Cc1c[nH]c2ccc(O)cc12)C(=O)O; Piperazinyl(4-CH2COOH) = O=C(O)CN1CCN(*)CC1; NMePhe(4-F) = CN[C@@H](Cc1ccc(F)cc1)C(=O)O; NMehPhe = CN[C@@H](CCc1ccccc1)C(=O)O; NMeAoc(2) = CCCCCC[C@H](NC)C(=O)O; Aad = N[C@@H](CCCC(=O)O)C(=O)O; Gly(cPr) = N[C@H](C(=O)O)C1CC1; Aoc(2) = CCCCCC[C@H](N)C(=O)O; Ahp(2) = CCCCC[C@H](N)C(=O)O; NMeK = CN[C@@H](CCCCN)C(=O)O; NMeDap = CN[C@@H](CN)C(=O)O; NMeC = CN[C@@H](CS)C(=O)O; NMeS = CN[C@@H](CO)C(=O)O; hCys = N[C@@H](CCS)C(=O)O; CO = O=C([*:1])[*:2]

What was measured:
Assay type in all cases: binding
mouse HER2 (23-653) [1] = molecular target: T1, mouse HER2 (23-653) (Mus musculus, UniProt P70424); test: Surface plasmon resonance (SPR) for assessment of peptide affinity, mouse HER2; parameters: mouse HER2 (23-653) using a Cy5 labeled peptide as a probe; made in house; details: SPR, mouse HER2 extracellular domain, 25° C., 1:1 binding model; read-out: moHER2-SPR-ONC KD
From the text: Each protein was immobilized either onto a SA sensorchip (Cytiva, BR-1005-31) or CM5 sensorchip (Cytiva, BR-1005-30) to a density of 800-2000 RU.

mouse HER2 (23-653) [2] = molecular target: T1, mouse HER2 (23-653); test: TR-FRET competition assay for peptide potency, mouse HER2; parameters: mouse HER2 (23-653) using a Cy5 labeled peptide as a probe; made in house; host or cells: mammalian cells
human HER2 (23-652) [3] = molecular target: T2, human HER2 (23-652) (Homo sapiens, UniProt P04626); test: TR-FRET competition assay for peptide potency, human HER2; parameters: towards human HER2 (23-652) and mouse HER2 (23-653); made in house; host or cells: mammalian cells
human HER2 (23-652) [4] = molecular target: T2, human HER2 (23-652); test: Surface plasmon resonance (SPR) for assessment of peptide affinity, human HER2; parameters: towards human HER2 (23-652) and mouse HER2 (23-653); made in house; details: SPR, human HER2 extracellular domain, 25° C., 1:1 binding model; read-out: huHER2-SPR-ONC KD
Method in brief: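 Binding kinetics fitted from sensorgrams with 280 s peptide association then 3000 s dissociation (30 uL/min), using HER2 (23-652) either directly immobilized (SA/CM5) or anti-Fc-captured; 3 M magnesium chloride used for regeneration.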

[5] = TR-FRET competition with Cy5 labeled peptide probe, 0.1 nM mouse HER2, 24 h incubation, read-out: moHER2 TR-FRET IC50

Kd (mouse HER2 (23-653) [1]) [µM] | IC50 (mouse HER2 (23-653) [2]; [5]) [µM] | IC50 (human HER2 (23-652) [3]; read-out: huHER2 TR-FRET IC50) [µM] | Kd (human HER2 (23-652) [4]) [µM] | IC50 (mouse HER2 (23-653) [2]; value in parentheses (**): recalculated after further repetition, read-out: moHER2 TR-FRET IC50, recalculated value achieved after further repetition) [µM] | IC50 (human HER2 (23-652) [3]; TR-FRET competition with Cy5 labeled peptide probe, 0.1 nM human HER2, 24 h incubation, read-out: huHER2 TR-FRET IC50) [µM] | IC50 (human HER2 (23-652) [3]; value in parentheses (**): recalculated after further repetition, read-out: huHER2 TR-FRET IC50, recalculated value achieved after further repetition) [µM] | Structure (SMILES)
1.46 | > 1 | > 1 | 2 |  |  |  | CN1C(=O)[C@H](CO)NC(=O)[C@H](Cc2ccc(O)cc2)NC(=O)[C@@H](N)CCSSC[C@@H](C(=O)N(C)[C@@H](Cc2ccc(F)cc2)C(N)=O)N(C)C(=O)[C@H](C2CC2)NC(=O)[C@H](Cc2c[nH]c3ccccc23)NC(=O)[C@H](Cc2c[nH]c3ccc(O)cc23)NC(=O)[C@H](CO)N(C)C(=O)[C@@H]1CCc1ccccc1 [Example A57, (4R,7S,10S,13S,16S,19S,22S,25S,28S)-10-((1H-indol-3-yl)methyl)-28-amino-N-((S)-1-amino-3-(4-fluorophenyl)-1-oxopropan-2-y1)-7-cyclopropyl-13-((5-hydroxy-1H-indol-3-y1)methyl)-25-(4-hydroxybenzyl)-16,22-bis(hydroxymethyl)-N,5,17,20-tetramethyl-6,9,12,15,18,21,24,27-octaoxo-19-phenethyl-1,2-dithia-5,8,11,14,17,20,23,26-octaazacyclotriacontane-4-carboxamide TFA salt] (H-[hCys]YS[NMehPhe][NMeS][Trp(5-OH)]W[Gly(cPr)][NMeC][NMePhe(4-F)]-NH2; disulfide 1-9)
> 6 | > 1 | > 1 | > 6 |  |  |  | CCCCCC[C@@H]1NC(=O)[C@H](Cc2c[nH]c3ccc(O)cc23)NC(=O)[C@H](CCCCNC(C)=O)N(C)C(=O)[C@H](CCc2ccccc2)N(C)C(=O)[C@H](CO)NC(=O)[C@H](Cc2ccc(O)cc2)NC(=O)[C@@H](NC(C)=O)CCCC(=O)NC[C@@H](C(=O)N(C)[C@@H](Cc2ccc(F)cc2)C(N)=O)N(C)C(=O)[C@H](C2CC2)NC1=O [Example A18, (3S,6S,9S,12S,15S,18S,21S,24S,27S)-27-acetamido-15-(4-acetamidobutyl)-N-((S)-1-amino-3-(4-fluorophenyl)-1-oxopropan-2-yl)-6-cyclopropyl-9-hexyl-12-((5-hydroxy-1H-indol-3-yl)methyl)-24-(4-hydroxybenzyl)-21-(hydroxymethyl)-N,4,16,19-tetramethyl-5,8,11,14,17,20,23,26,31-nonaoxo-18-phenethyl-1,4,7,10,13,16,19,22,25-nonaazacyclohentriacontane-3-carboxamide] (Ac-[Aad]YS[NMehPhe][NMeK](Ac)[Trp(5-OH)][Aoc(2)][Gly(cPr)][NMeDap][NMePhe(4-F)]-NH2; lactam 1-9)
0.755 | > 1 | 0.844 | 0.485 |  |  |  | CN1C(=O)[C@H](CO)NC(=O)[C@H](Cc2ccc(O)cc2)NC(=O)[C@@H](N)Cc2cccc(c2)CC(=O)NC[C@@H](C(=O)N(C)[C@@H](Cc2ccc(F)cc2)C(N)=O)N(C)C(=O)[C@H](C2CC2)NC(=O)[C@H](Cc2c[nH]c3ccccc23)NC(=O)[C@H](Cc2c[nH]c3ccc(O)cc23)NC(=O)[C@H](CO)N(C)C(=O)[C@@H]1CCc1ccccc1 [Example A31, (6S,9S,12S,15S,18S,21S,24S,27S,30S)-12-((1H-indol-3-yl)methyl)-30-amino-N—((S)-1-amino-3-(4-fluorophenyl)-1-oxopropan-2-yl)-9-cyclopropyl-15-((5-hydroxy-1H-indol-3-yl)methyl)-27-(4-hydroxybenzyl)-18,24-bis(hydroxymethyl)-N,7,19,22-tetramethyl-3,8,11,14,17,20,23,26,29-nonaoxo-21-phenethyl-4,7,10,13,16,19,22,25,28-nonaaza-1 (1,3)-benzenacyclohentriacontaphane-6-carboxamide TFA salt]
0.0006 | 0.0008 | 0.0004 | 0.0005 |  |  |  | CC(=O)NCCCC[C@H]1C(=O)N[C@@H](Cc2c[nH]c3ccc(O)cc23)C(=O)N[C@@H](Cc2c[nH]c3ccccc23)C(=O)N[C@@H](C2CC2)C(=O)N(C)[C@H](C(=O)N(C)[C@@H](Cc2ccc(F)cc2)C(N)=O)CNC(=O)CCC[C@H](NC(C)=O)C(=O)N[C@@H](Cc2ccc(O)cc2)C(=O)N[C@@H](CO)C(=O)N(C)[C@@H](CCc2ccccc2)C(=O)N1C [Example A5, (3S,6S,9S,12S,15S,18S,21S,24S,27S)-9-((1H-indol-3-yl)methyl)-27-acetamido-15-(4-acetamidobutyl)-N-((S)-1-amino-3-(4-fluorophenyl)-1-oxopropan-2-yl)-6-cyclopropyl-12-((5-hydroxy-1H-indol-3-yl)methyl)-24-(4-hydroxybenzyl)-21-(hydroxymethyl)-N,4,16,19-tetramethyl-5,8,11,14,17,20,23,26,31-nonaoxo-18-phenethyl-1,4,7,10,13,16,19,22,25-nonaazacyclohentriacontane-3-carboxamide] (Ac-[Aad]YS[NMehPhe][NMeK](Ac)[Trp(5-OH)]W[Gly(cPr)][NMeDap][NMePhe(4-F)]-NH2; lactam 1-9)
0.799 | 0.422 |  | 1.15 | 0.434 | 0.236 | 0.164 | CC(=O)NCCCC[C@H]1C(=O)N[C@@H](Cc2c[nH]c3ccc(O)cc23)C(=O)N[C@@H](Cc2c[nH]c3ccccc23)C(=O)N[C@@H](C2CC2)C(=O)N(C)[C@H](C(=O)N(C)[C@@H](Cc2ccc(F)cc2)C(=O)N[C@@H](CCCCNC(=O)CN2CCN(CC(=O)O)CCN(CC(=O)O)CCN(CC(=O)O)CC2)C(N)=O)CNC(=O)CCC[C@H](NC(C)=O)C(=O)N[C@@H](Cc2ccc(O)cc2)C(=O)N[C@@H](CCCCNC(=O)N2CCN(CC(=O)O)CC2)C(=O)N(C)[C@@H](CCc2ccccc2)C(=O)N1C [Example C7] (Ac-[Aad]YK([CO-Piperazinyl(4-CH2COOH)])[NMehPhe][NMeK](Ac)[Trp(5-OH)]W[Gly(cPr)][NMeDap][NMePhe(4-F)]K(DOTA)-NH2; lactam 1-9)
0.044 | 0.107 | 0.046 | 0.04 |  |  |  | CCCCCC[C@@H](C(N)=O)N(C)C(=O)[C@@H]1CNC(=O)CCC[C@H](NC(C)=O)C(=O)N[C@@H](Cc2ccc(O)cc2)C(=O)N[C@@H](CO)C(=O)N(C)[C@@H](CCc2ccccc2)C(=O)N(C)[C@@H](CCCCNC(C)=O)C(=O)N[C@@H](Cc2c[nH]c3ccc(O)cc23)C(=O)N[C@@H](Cc2c[nH]c3ccccc23)C(=O)N[C@@H](C2CC2)C(=O)N1C [Example A13, (3S,6S,9S,12S,15S,18S,21S,24S,27S)-9-((1H-indol-3-yl)methyl)-27-acetamido-15-(4-acetamidobutyl)-N-((S)-1-amino-1-oxooctan-2-yl)-6-cyclopropyl-12-((5-hydroxy-1H-indol-3-yl)methyl)-24-(4-hydroxybenzyl)-21-(hydroxymethyl)-N,4,16,19-tetramethyl-5,8,11,14,17,20,23,26,31-nonaoxo-18-phenethyl-1,4,7,10,13,16,19,22,25-nonaazacyclohentriacontane-3-carboxamide] (Ac-[Aad]YS[NMehPhe][NMeK](Ac)[Trp(5-OH)]W[Gly(cPr)][NMeDap][NMeAoc(2)]-NH2; lactam 1-9)
> 6 | > 1 | > 1 | > 6 |  |  |  | CCCCC[C@@H]1NC(=O)[C@H](Cc2c[nH]c3ccc(O)cc23)NC(=O)[C@H](CCCCNC(C)=O)N(C)C(=O)[C@H](CCc2ccccc2)N(C)C(=O)[C@H](CO)NC(=O)[C@H](Cc2ccc(O)cc2)NC(=O)[C@@H](NC(C)=O)CCCC(=O)NC[C@@H](C(=O)N(C)[C@@H](Cc2ccc(F)cc2)C(N)=O)N(C)C(=O)[C@H](C2CC2)NC1=O [Example A17, (3S,6S,9S,12S,15S,18S,21S,24S,27S)-27-acetamido-15-(4-acetamidobutyl)-N-((S)-1-amino-3-(4-fluorophenyl)-1-oxopropan-2-yl)-6-cyclopropyl-12-((5-hydroxy-1H-indol-3-yl)methyl)-24-(4-hydroxybenzyl)-21-(hydroxymethyl)-N,4,16,19-tetramethyl-5,8,11,14,17,20,23,26,31-nonaoxo-9-pentyl-18-phenethyl-1,4,7,10,13,16,19,22,25-nonaazacyclohentriacontane-3-carboxamide] (Ac-[Aad]YS[NMehPhe][NMeK](Ac)[Trp(5-OH)][Ahp(2)][Gly(cPr)][NMeDap][NMePhe(4-F)]-NH2; lactam 1-9)
